How the values were obtained:
[1] = biological target: T1, lysozyme-COT 15 in HEK293T cell lysate (Gallus gallus, UniProt P00698); test: Protein labeling in the presence of HEK293T cell lysate; assay type: biochemical; settings: 13 and lysozyme-COT 15, HEK293T cell lysate, PBS, 2 hours
T1 construct: purchased
Procedure: There appeared to be no cross-reactivity between dialkylhydroxylamine and other proteins under these conditions.
(§1) Cell Culture: HEK-293T cells were cultured in Dulbecco's Modified Eagle Media (DMEM, Corning®) containing 10% fetal bovine serum (FBS, Sigma), 100 units/mL penicillin, and 0.1 mg/mL streptomycin (Sigma) in a humidified chamber at 37° C. with 5% CO2. Cells were passaged and dissociated with 0.25% trypsin, 0.1% ethylenediaminetetraacetic acid (EDTA) in Hanks' balanced salt solution (HBSS) (Corning®). Cells tested negative for […] by the MycoAlert™ PLUS Mycoplasma Detection Kit (Lonza) following the manufacturer's protocol.
Cell Lysate: Cell culture media was aspirated prior to lysis. Cells (10 cm dish, ˜80% confluency) was lysed by adding lysis buffer (1.0 mL, 4° C.; 150 mM NaCl, 50 mM Tris (pH 8.0), 1% triton X-100). After centrifugation (13,000×g) at 4° C., the supernatant was transferred to a clean tube, and the protein concentration was determined by BCA (bicinchoninic acid) protein assay (Pierce™ BCA Protein Assay Kit). […]
Protein Labeling Experiments: Lysozyme-COT 15 (0.75 μg, 5.0 μL, 0.15 mg/mL in deionized water) was aliquoted to form 4 samples. […] In-gel fluorescence was imaged with a Typhoon™ FLA 9500 (GE) at 532 nm with a photomultiplier tube (PMT) setting of 500 V. The experiment was carried out in triplicate.

[2] = tested on: cell surface HaloTag-GFP expressed on HEK293T cells; test: Live cell labeling experiment (confocal microscopy); assay type: cell-based; settings: 10 μM 21′, then 10 μM 22′ for 1 hour, fixed
Procedure: Live cell labeling by hydroamination was explored. HEK293T cells were transiently transfected with a cell surface HaloTag-GFP construct, treated with 10 μM HaloTag linker-conjugated difluoropropargyl ether 21′, washed, and incubated with 10 μM TAMRA-conjugated hydroxylamine 22′ for 1 hour. The cells were then fixed and visualized by confocal microscopy.
as §1, with “Medium” for “Media”, “EDTA” for “ethylenediaminetetraacetic acid (EDTA)”, “HBSS” for “Hanks' balanced salt solution (HBSS)”, “MycoAlert” for “MycoAlert™”
Preparation for 12-Well Plate: Coverslips (15 mm circle, thickness 0.13-0.17 mm) were acid-washed according to the Cold Spring Harbor protocol (Fischer et al., Cold Spring Harb. Protoc. 2008:pdb.prot4988 (2008)). A coverslip was added to each well in a 12-well plate followed by an aqueous solution of poly-D-lysine (0.1 mg/mL, 30-70 kDa, 800 μL). The plate was gently shaken to distribute the solution evenly, incubated at room temperature for 1 hour, washed using 1 mL of autoclaved deionized water for each well, and dried overnight. […]

T1 sequence (P00698 19-147): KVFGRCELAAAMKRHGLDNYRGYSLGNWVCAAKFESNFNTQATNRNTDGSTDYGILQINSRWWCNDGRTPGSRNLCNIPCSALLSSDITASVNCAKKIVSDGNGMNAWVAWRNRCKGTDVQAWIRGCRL

SMILES: CN(O)CCOCCNC(=O)c1ccc2c(c1)C1(OC2=O)c2ccc(N(C)C)cc2Oc2cc(N(C)C)ccc21 [compound 13, 3′,6′-bis(dimethylamino)-N-(2-(2-(hydroxy(methyl)amino)ethoxy)ethyl)-3-oxo-3H-spiro[isobenzofuran-1,9′-xanthene]-6-carboxamide]
- labeling specificity in the presence of cell lysate [1]: lysozyme was labeled exclusively
- live cell labeling (TAMRA signal) [2]: localized at the cell surface and co-localized with the GFP signal of transfected cells
